Assays:
ECHCG = test: A. Herbicidal pre-emergence action on harmful plants (Tables A); type: in vivo, Echinochloa crus-galli; settings: visual grading after ca. 3 weeks vs untreated controls, 100% = plants have died off, 0% = as control plants
Description: (§1) Seeds of mono- and dicotyledonous weed plants were sown in plastic pots (double sowings with one species of mono- and one species of dicotyledonous weed plants per pot), in sandy loam, and covered with soil. The compounds according to the invention, formulated in the form of wettable powders (WP) or as emulsifiable concentrates (EC), were applied to the surface of the covering soil as aqueous suspension or emulsion, with the addition of 0.5% of an additive, at an application rate of 6001 of water per hectare (converted). Following treatment, the pots were placed in a greenhouse and kept under optimum growth conditions for the test plants. The visual grading of the damage to the test plants was carried out after ca. 3 weeks in comparison to untreated controls (herbicidal effect in percent (%): 100% effect = plants have died off, 0% effect = as control plants). Tables A1 to A12, below, show the effects of selected compounds of the general formula (I) according to table 1 on various harmful plants and an application rate corresponding to 1280 g/ha or below obtained by the experimental procedure mentioned above. Table A1: pre-emergence activity at 1280g/ha against ABUTH in %

LOLRI = test: as above; type: in vivo, Lolium rigidum; settings: visual grading after ca. 3 weeks vs untreated controls, 100% = plants have died off, 0% = as control plants
Description: as §1

STEME = test: as above; type: in vivo, Stellaria media; settings: application rate 1280 g/ha; visual grading after ca. 3 weeks vs untreated controls; 100% = plants have died off, 0% = as control plants
Description: as §1

POAAN [1] = test: as above; type: in vivo, Poa annua
Description: as §1

DIGSA = test: as above; type: in vivo, Digitaria sanguinalis
Description: as §1

MATIN = test: as above; type: in vivo, Matricaria inodora; settings: visual grading after ca. 3 weeks vs untreated controls, 100% = plants have died off, 0% = as control plants
Description: as §1

SETVI = test: as above; type: in vivo, Setaria viridis; settings: visual grading after ca. 3 weeks vs untreated controls, 100% = plants have died off, 0% = as control plants
Description: as §1

ALOMY = test: as above; type: in vivo, Alopecurus myosuroides; settings: application rate 1280 g/ha; Table A9a
Description: as §1

POAAN [2] = test: B. Herbicidal post-emergence action on harmful plants (Tables B); type: in vivo, Poa annua
Method: Seeds of mono- and dicotyledonous weed plants were placed in plastic pots in sandy loam soil (doubly sown with in each case one species of mono- or dicotyledonous weed plants per pot), covered with soil and cultivated in a greenhouse under controlled growth conditions. 2 to 3 weeks after sowing, the test plants were treated at the one-leaf stage. The compounds of the invention, formulated in the form of wettable powders (WP) or as emulsion concentrates (EC), were applied onto the green parts of the plants as aqueous suspension or emulsion with addition of 0.5% additive at a water application rate of 600 liters per hectare (converted). After the test plants had been kept in the greenhouse under optimum growth conditions for about 3 weeks, the activity of the preparations was rated visually in comparison to untreated controls. For example, 100% activity = the plants have died, 0% activity = like control plants. Tables B1 to B12, below, show the effects of selected compounds of the general formula (I) according to table 1 on various harmful plants and an application rate corresponding to 1280 g/ha or below obtained by the experimental procedure mentioned above. Table B1a: post-emergence activity at 1280g/ha against ABUTH in %

[3] = application rate 1280 g/ha, visual grading after ca. 3 weeks vs untreated controls, 100% = plants have died off, 0% = as control plants
[4] = application rate 1280 g/ha, Table A12a
[5] = application rate 80 g/ha, Table A7c
[6] = application rate 320 g/ha, Table A7b
[7] = application rate 320 g/ha, Table A12b
[8] = application rate 1280 g/ha, Table B7a

| Compound | pre-emergence activity against ECHCG (ECHCG; application rate 1280 g/ha) | pre-emergence activity against LOLRI (LOLRI; application rate 1280 g/ha) | pre-emergence activity against STEME (STEME) | pre-emergence activity against POAAN (POAAN [1]; [3]) | pre-emergence activity against DIGSA (DIGSA; [4]) | pre-emergence activity against ECHCG (ECHCG; application rate 320 g/ha) | pre-emergence activity against MATIN (MATIN; application rate 1280 g/ha) | pre-emergence activity against SETVI (SETVI; application rate 80 g/ha) | pre-emergence activity against SETVI (SETVI; application rate 320 g/ha) | pre-emergence activity against SETVI (SETVI; application rate 1280 g/ha) | pre-emergence activity against POAAN (POAAN [1]; [5]) | pre-emergence activity against POAAN (POAAN [1]; [6]) | pre-emergence activity against ALOMY (ALOMY) | pre-emergence activity against DIGSA (DIGSA; [7]) | post-emergence activity against POAAN (POAAN [2]; [8]) | pre-emergence activity against ECHCG (ECHCG; application rate 80 g/ha) | pre-emergence activity against LOLRI (LOLRI; application rate 320 g/ha) | pre-emergence activity against MATIN (MATIN; application rate 320 g/ha) | pre-emergence activity against DIGSA (DIGSA; application rate 80 g/ha, Table A12c) | post-emergence activity against POAAN (POAAN [2]; application rate 320 g/ha, Table B7b) |
| --- | --- | --- | --- | --- | --- | --- | --- | --- | --- | --- | --- | --- | --- | --- | --- | --- | --- | --- | --- | --- |
| Cn1cc(C(=O)N2CCCC2Cc2ccccc2F)c(C2CCCO2)n1 (stereo not shown) [Example I-011] | 100% | 90% | 90% | 100% | 100% |  |  |  |  |  |  |  |  |  |  |  |  |  |  |  |
| COCc1c(C(=O)N2CCCC2Cc2cc(F)ccc2F)cnn1C (single isomer, unassigned) [Example I-188] | 100% | 100% | 90% | 100% | 100% | 90% | 90% | 90% | 100% | 100% | 90% | 100% | 90% | 90% | 90% |  |  |  |  |  |
| COCc1nn(CC(OC)OC)cc1C(=O)N1CCCC1Cc1ccccc1F (racemic) [Example I-047] | 100% | 90% |  | 100% | 90% |  |  |  |  |  |  |  |  |  |  |  |  |  |  |  |
| Cn1cc(C(=O)N2CCC2Cc2ccccc2Cl)c(COCC(F)F)n1 (racemic) [Example I-109] | 100% |  |  | 100% | 100% | 100% | 100% |  |  | 90% |  | 100% |  | 90% |  |  |  |  |  |  |
| COCc1nn(CC2OCCO2)cc1C(=O)N1CCCC1Cc1ccccc1F (racemic) [Example I-028] | 90% |  |  | 100% | 90% |  |  |  |  | 90% |  |  |  |  |  |  |  |  |  |  |
| COCc1nn(CC2CC2)cc1C(=O)N1CCCC1Cc1ccccc1F (racemic) [Example I-026] | 90% |  |  | 100% | 100% |  |  |  |  | 90% |  |  |  |  |  |  |  |  |  |  |
| COCc1nn(C(C)C)cc1C(=O)N1CCCC1Cc1ccccc1F (racemic) [Example I-025] | 90% | 90% |  | 100% | 100% |  | 90% |  |  | 90% |  | 100% |  | 90% |  |  |  |  |  |  |
| COCc1c(C(=O)N2CCCC2Cc2ccc(F)cc2F)cnn1C (single isomer, unassigned) [Example I-119] | 90% | 100% |  | 100% | 100% |  |  |  | 90% | 100% |  |  |  | 90% | 90% |  |  |  |  |  |
| CCn1cc(C(=O)N2CCCC2Cc2ccccc2F)c(COC)n1 (racemic) [Example I-027] | 90% | 90% | 90% |  | 90% | 90% |  |  | 100% | 100% |  |  | 90% | 90% |  |  |  |  |  |  |
| COCc1c(C(=O)N2CCCC2Cc2c(F)cccc2Cl)cnn1C (single isomer, unassigned) [Example I-190] | 100% | 90% | 90% | 100% | 100% | 90% |  |  |  | 100% | 90% | 100% |  | 100% | 90% |  |  |  |  |  |
| Cn1cc(C(=O)N2CCC2Cc2ccccc2F)c(COCC(F)F)n1 (racemic) [Example I-108] | 100% | 90% | 90% | 100% | 100% | 100% | 100% |  |  | 100% | 90% | 100% |  |  | 90% |  |  |  |  |  |
| COCc1c(C(=O)N2CCCC2Cc2cccc(F)c2F)cnn1C (single isomer, unassigned) [Example I-137] | 100% | 100% |  | 100% | 100% | 90% | 90% |  |  | 100% | 100% | 100% |  | 100% | 90% | 90% | 90% | 90% | 100% |  |
| COCCOCCn1cc(C(=O)N2CCCC2Cc2ccccc2F)c(COC)n1 (racemic) [Example I-030] | 90% |  |  | 100% | 90% |  | 90% |  |  | 90% | 90% | 90% |  |  |  |  |  |  |  |  |
| COCCn1cc(C(=O)N2CCCC2Cc2ccccc2F)c(COC)n1 (racemic) [Example I-032] | 90% | 100% |  | 100% | 100% | 90% |  |  | 90% | 90% |  | 100% |  |  |  |  |  |  |  |  |
| COC(=O)c1nn(C)cc1C(=O)N1CCCC1Cc1ccc(F)cc1F (racemic) [Example I-096] | 100% |  | 100% | 100% | 100% | 100% |  |  |  |  |  | 100% |  |  | 100% |  |  |  |  | 100% |
| COCc1c(C(=O)N2CCCC2Cc2c(F)cccc2Cl)cnn1C (racemic) [Example I-151] | 100% | 90% | 90% | 100% | 100% |  |  |  |  | 90% |  |  |  |  |  |  |  |  |  |  |
| COCc1nn(CC#N)cc1C(=O)N1CCCC1Cc1ccccc1F (racemic) [Example I-029] | 90% |  |  | 90% | 100% |  | 90% |  |  | 100% |  |  |  |  |  |  |  |  |  |  |
